Data set [1] in a line: MTD study, four mice each dose. The settings on record: mouse, in vivo, ip. The data set is classed as in vivo. Here is the method: Controlled shRNA depletion was evaluated in a murine lymphoma model (Eμ-BRD2 (Chung, J., et al. (2013) J. Biological Chemistry 288, 35534-35547)) and human xenograft model of glioblastoma (Yan, F., et al (2014) Cancer Research In Press). Referring to FIG. 62A, controlled expression of a PRMT5 shRNA (solid line) but not control shRNA (dashed line) leads to 100% survival of mice engrafted primary DLBCL tumor cells. […] The maximum tolerated dose (MTD, single dose) was identified at 50 mg/kg (see Table 11 below). A sub-toxic dose (25 mg/kg) was used to treat FcMCL mice. Control mice developed peripheral blood and lymph node tumor burden starting day 20 post-engraftment.

In data set [2] the test system is H4R3me2 binding to miR-29b regulatory site. The data set can be described thus: ChIP assay at miR-29b regulatory site. The data set is classed as cell-based. Here is the method: Cross-linked chromatin was prepared by incubating cells in 1% formaldehyde for 10 min at room temperature and quenching with ice cold 1M Glycine. Cells were sonicated in 1% SDS lysis buffer and sheared chromatin was used to pull down protein/DNA complexes using antibodies against SP1, p65 (ChIP-grade Millipore), H4R3me2, H3R8me2 (Abcam) and RNA Pol II as positive control and normal IgG (Millipore) as negative control. Reverse cross-linked DNA was purified using QIAquick PCR Purification kit (Qiagen) and quantitative real-time PCR was carried out using SYBER green incorporation and primers designed for either FLT3 promoter region (sequenceF:R:) or miR-29b enhancer region (sequenceF:R:). DNA signals were calculated relative to input DNA amount and in comparison to expression values of negative control IgG.
The regulatory region of pri-miR-29b was later checked for possible docking of PRMT5 (indirect binding) or H3R8me2 and/or H4R3me2 (direct binding) using ChIP assay with and without PRMT5 inhibition. […] The efficiency of miR-29b in modulating SP1 was confirmed by miR-29b gain- and loss-of function assays in AML cells, and significant suppression of SP1 in miR-29b overexpressing cells was detected, while SP1 was re-expressed when cells were treated with miR-29b knockdown (FIGS. 49A and 49B). […]

In a further data set the test system is MOLM-13. The data set can be described thus: MTS growth inhibition assay. The settings on record: Homo sapiens; MOLM-13, FLT3-ITD+, 48 h. The data set is classed as cell-based. Here is the method: (§1) Clonogenic assays were set up by plating 1×10^3 cell/mL in semi-solid methylcellulose medium (MethoCult, Stem Cell Technologies). Colonies were counted after 10-14 days using an inverted microscope. Growth inhibition assays were measured using a colorimetric MTS assay: 5×10^4 cells were plated in 100 μL final volume in a 96-well plate in the presence of different concentrations of C12 for 24, 48 and 72 hours at 37° C. Afterwards, 20 μL of the CellTiter 96W AQueous One Solution Reagent, which contains tetrazolium compound [3-(4,5-[…])-5-(3-carboxymethoxyphenyl)-2-(4-sulfophenyl)-2H-tetrazolium, inner salt; MTS] and an electron coupling reagent (phenazine ethosulfate; PES) (Promega, Madison Wis.), was added to each well. Within 1-4 hours of incubation at 37° C., the optical density at 490 and 690 nm was measured. Cell viability was calculated with respect to the control samples and reference background wavelength at 690 nm. At least three independent experiments were performed. Growth curve assays were done by counting live cells using Trypan blue exclusion and inverted microscope for >12 days after plating the cells in 1×10^5 concentrations.
(§2) PRMT5 inhibition by C12 was also effective in promoting apoptosis and differentiation.
(§3) Referring to FIGS. 34A and 34B, a colorimetric MTS assay was used to measure the proliferation rate of AML cell lines and primary blasts from patients after 48 hours incubation with a PRMT5 inhibitor compound (HLCL61 or C12). The dose-dependent decrease in absorbance indirectly correlates with the number of metabolically active live cells. The IC50 values represent the concentration of the compound at which 50% cell death was achieved.

For a further data set, the system named is MV411. The experiment in a line: MTS growth inhibition assay. The data set is classed as cell-based. Conditions: Homo sapiens, MV4-11, MV411, FLT3-ITD+, read-out: IC50 μM. Here is the method: as §1, §2, §3
The next data set has as its system THP-1. The experiment in a line: MTS growth inhibition assay. The settings on record: Homo sapiens; THP-1, FLT3-WT, 48 h. The data set is classed as cell-based. The protocol:
as §1, §2, §3

The structures appear in SMILES notation. Read-outs that look alike come from different tables or passages of the source.

Turning to `CCn1c2ccccc2c2cc(CNCc3ccccc3OC)ccc21` [HLCL-61], the “survival 24 hr after dosing” value in data set [1] (5 mg/kg, 24 h) was “Alive 24 hr after”; in data set [1] (50 mg/kg, 24 h), “moving. Alive 24 hr”. In addition, the “condition within 1 hr after dosing (alive but slow moving)” value in data set [1] (50 mg/kg) was “Alive within 1 hr after”. The “mice lethargic and slow moving 24 hr after dosing” value in data set [1] (50 mg/kg, 24 h) is “after dosing, 1 out 4”. Further, in data set [2], the “binding of H4R3me2 to miR-29b regulatory site” value is “significant decrease in binding”. In addition, the IC50 in the data set on MOLM-13 was found to be 21.5 µM; in the data set with MV411 (24 h, 24 h) it was 17.9 µM; in the data set on MV411 (48 h, 48 h), 14.1 µM; in the data set on MV411 (72 h, 72 h), 10.9 µM; in the data set on THP-1, 16.7 µM.
